# Test results: US20150250167A1, “COMPOSITION FOR NOXIOUS ORGANISMS-CONTROLLING AGENT AND METHOD FOR USING THE SAME” (priority 2001, published 2015)
# Columns and labels:
# [1] = system: Smaller Tea Tortrix (Adoxophyes orana fosciota); test: Insecticidal test on smaller tea tortrix, tea leaf dipping; assay type: in vivo; conditions: single agent 0.3 ppm, 4th instar larvae, 25° C.
# Method: Insecticidal Test on Smaller Tea Tortrix (Adoxophyes orana fosciota)
# Tea leaves were dipped in a solution of a chemical diluted to a prescribed concentration for 30 seconds. […] Four days and seven days after the treatment, the number of alive insects were counted, from which percentage of death was calculated.
# [2] = system: Citrus Yellow Thrips (Frankliniella occidentalis); test: Control of citrus yellow thrips on egg plant by combined use with natural enemy pesticide, number of thrips; assay type: in vivo; conditions: 100 ppm, spray
# Aphid = test: Control of aphid on cabbage by soil treatment, number of parasitic insects; assay type: in vivo; conditions: 5 mg ai/hill, 21 days after transplanting
# Method: (§1) Test for the Control of Diamondback Moth (Plutella xyloxtella) and Aphid on Cabbage by Soil Treatment
# A granular preparation was mixed into bed soil, and the mixture was filled into a cell seedling box and sown with seeds of cabbage (variety: YR Seitoku). Otherwise, cell seedling planted cabbage was treated with the granular agent either by a treatment in the foliage leaf extraction period, or by a pre-transplanting treatment, or by a pricking-in hole treatment, or by a plant foot treatment after the planting. […]
# Rice Blast = conditions: in vivo
# [3] = system: Green Peach Aphid (Myzus persicae); test: Insecticidal test on green peach aphid, spraying of Chinese cabbage, control value; assay type: in vivo; conditions: 100 ppm, single agent, 6 days after spraying
# [4] = system: Diamondback Moth (Plutella xyloxtella); test: Control of diamondback moth on cabbage by soil treatment, number of parasitic insects; assay type: in vivo; conditions: 5 mg ai/hill, 21 days after transplanting
# Method: as §1
# A granular preparation was mixed into bed soil, and the mixture was filled into a cell seedling box and sown with seeds of cabbage (variety: YR Seitoku). Otherwise, cell seedling planted cabbage was treated with the granular agent either by a treatment in the foliage leaf extraction period, or by a pre-transplanting treatment, or by a pricking-in hole treatment, or by a plant foot treatment after the planting. Twenty one days after the transplanting (in the middle of June), the number of parasitic insects was counted on 30 hills in the case of diamondback moth and on 10 hills in the case of aphid.
# [5] = system: Brown Rice Planthopper (Nilaparvata lugens); test: Insecticidal test on brown rice planthopper, rice seedling dipping; assay type: in vivo; conditions: 100 ppm, single agent; for Death rate (%) After 1 days: after 1 day
# From the text: Insecticidal Test on Brown Rice Planthopper (Nilaparvata lugens)
# Rice seedlings (variety: Nihombare) were dipped in a solution of an agent diluted to a predetermined concentration for 30 seconds. After air-dryness, each seedling was introduced into a glass-made test tube having a diameter of 1.8 cm and a height of 20 cm, and inoculated with ten 3rd inster nimphs of brown rice planthopper. Then, the test tube was stoppered with cotton. One day after and four days after the treatment, the number of alive insects was counted, based on which the insect death rate was calculated.
# [6] = system: Small Brown Planthopper (Laodelphax striatellus); test: Control of small brown planthopper on paddyfield rice by nursery box application, number of parasitic insects; assay type: in vivo; conditions: 0.5 g ai/Box, single agent
# Method: (§2) Test for the Control of Small Brown Planthopper (Laodelphax striatellus) and Rice Leafroller (Cnaphalocrosis medinalis) on Paddyfield Rice Plant by Nursery Box Application
# (§3) Fifty grams of a granular preparation was applied to rice plant (variety: Nihombare) cultured in a nursery box, after which the rice plant was transplanted to the main paddy field (in the middle of May). The controlling effect against small brown planthopper was evaluated by investigating the number of parasitic insects on 30 hills per each plot, 40 days and 60 days after the transplantation. The controlling effect against rice leafroller was evaluated by investigating the number of injured leaves on 100 hills per each plot, 50 days after the transplantation.
# [7] = system: Southern Root-Knot Nematode (Meloidogyne incognita); test: Test for the effect on southern root-knot nematode, soil blending with granular preparation; assay type: in vivo; conditions: 300 g ai/10a, single agent, 60 days after treatment
# From the text: Test for the Effect on Southern Root-Knot Nematode (Meloidogyne incognita)
# Two killograms of a soil polluted with southern root-knot nematode was blended with a predetermined dose of a granular preparation. The mixture was filled into a 1/5,000 are Wagner pot. After sowing melon seeds and carrying out the treatment of the present invention, the pot was left to stand in a greenhouse. Sixty days after the treatment, 25 g of the soil was sampled out, the nematode was separated therefrom according to the method of Berman, and the numbers of nematodes were counted after 48 hours.
# In the tables, “ai” means active ingredient.
# [8] = system: Rice Water Weevil (Lissorhoptrus oryzophilus); test: Control of rice water weevil on paddyfield rice by nursery box application, extent of injury; assay type: in vivo; conditions: 0.5 g ai/Box, single agent
# [9] = system: Resistant Strain of Two-Spotted Spider Mite; conditions: 100 ppm, single agent, 2 days after spraying
# [10] = system: Rice Leafroller (Cnaphalocrosis medinalis); test: Control of rice leafroller on paddyfield rice by nursery box application, number of injured leaves; assay type: in vivo; conditions: 0.5 g ai/Box, single agent
# Method: as §2, §3
# Cutworm = test: Test for the effect against cutworm on beet, drench, number of injured hills per 100 hills; assay type: in vivo; conditions: 15 g ai/10a
# Method: Test for the Effect Against Cutworm on Beet
# Beet seedlings (variety: Monoace S) planted in a paper pot was treated with 3 L/m^2 of a solution of an agent diluted to a predetermined concentration, by the method of drench. Just after the drench, the plant was set. Predetermined days after the setting, the number of injured hills per 100 hills was counted.
# [11] = true leaf extraction season treatment
Structure (SMILES),Death rate (%) After 4 days [1] [%],Death rate (%) After 7 days [1] [%],"Number of parasitic insects per 20 leaves, After 60 days [2]","Number of parasitic insects per 20 leaves, After 90 days [2]","Number of parasitic insects per 20 leaves, After 120 days [2]","Number of parasitic insects per 30 hills, Aphid (Aphid; plant foot treatment)","Number of parasitic insects per 30 hills, Aphid (Aphid; pre-transplanting treatment)","Number of parasitic insects per 30 hills, Aphid (Aphid; pricking-in hole treatment)","Number of parasitic insects per 30 hills, Aphid (Aphid; soil incorporation)","Number of parasitic insects per 30 hills, Aphid (Aphid; [11])",Areal rate of disease spot (%) After 60 days (Rice Blast) [%],Control degree (%) [3] [%],"Number of parasitic insects per 30 hills, Diamondback moth ([4]; plant foot treatment)","Number of parasitic insects per 30 hills, Diamondback moth ([4]; pre-transplanting treatment)","Number of parasitic insects per 30 hills, Diamondback moth ([4]; pricking-in hole treatment)","Number of parasitic insects per 30 hills, Diamondback moth ([4]; soil incorporation)","Number of parasitic insects per 30 hills, Diamondback moth [4, 11]",Death rate (%) After 1 days [5] [%],Death rate (%) After 5 days [5] [%],Number of parasitic planthoppers per 30 hills After 40 days [6],further results
Cc1cc(C(F)(F)F)ccc1NC(=O)c1cccc(I)c1C(=O)NC(C)C [Compound 40],0,25,22,31,52,478,477,486,472,510,7.9,0,3,1,1,2,1,0,0,322,"Number of parasitic planthoppers per 30 hills After 60 days [6]: 358; Number of nematodes per 25 g of soil sample [7]: 33; Extent of injury After 21 days [8]: 39.0; Death rate (%) [9]: 0%; Percentage of injured leaves (%) After 50 days [10]: 0.33%; Number of injured hills per 100 hills, After 60 days (Cutworm): 0; Number of injured hills per 100 hills, After 90 days (Cutworm): 9; Number of injured hills per 100 hills, After 120 days (Cutworm): 23"
Cc1cc(OC(F)(F)F)ccc1NC(=O)c1cccc(Cl)c1C(=O)NC(C)C [Compound 20],0,25,21,28,49,501,478,499,512,498,8.1,0,5,6,3,4,2,0,0,315,"Number of parasitic planthoppers per 30 hills After 60 days [6]: 354; Number of nematodes per 25 g of soil sample [7]: 28; Extent of injury After 21 days [8]: 37.4; Death rate (%) [9]: 0%; Percentage of injured leaves (%) After 50 days [10]: 0.15%; Number of injured hills per 100 hills, After 60 days (Cutworm): 0; Number of injured hills per 100 hills, After 90 days (Cutworm): 7; Number of injured hills per 100 hills, After 120 days (Cutworm): 20"
